From US20030096850A1, “Treating infections by administration of oxazolidinones” (priority 2001, published 2003) come the findings set out here.

Assay [1] in a line: Human who has acne treated with an Oxazolidinone ointment. The class given is in vivo. The following applies: person, ointment 30 mg/ml twice daily on skin.
The nature of assay [2]: Treatment of diabetic foot with cream or ointment. It is filed as in vivo, human. The settings on record: cream or ointment 10-30 mg/ml three times daily for 10-14 days. On the procedure: A 70 kilo […] with a history of diabetes and infected foot ulcerations, also known as diabetic foot, is treated with a cream or ointment preparation of 10-30 mg/ml (S)-N-[[3-[3-fluoro-4-(4-morpholinyl)phenyl]-2-oxo-5-oxazolidinyl]methyl]acetamide. The cream or ointment is liberally spread over the exposed surface of the ulcerations and adjacent whole skin three times daily for 10-14 days.

Assay [3] in a line: Human who has an ear infection (otitis media) treated with Oxazolidinone solution. The following applies: child, ten drops of 10 mg/ml solution into the ear twice daily, before 10 days. The class given is in vivo. On the procedure:
Ten drops of a solution containing 10 mg/ml of (S)-N-[[3-[3-fluoro-4-(4-morpholinyl)phenyl]-2-oxo-5-oxazolidinyl]methyl]acetamide is dropped into the ear twice daily for ten days with an eye dropper and is immediately followed by closing the outer ear canal with cotton.

The next assay concerns Staphylococcal aureus. Briefly: Human treated with Oxazolidinone cream or ointment prior to surgery. It is filed as in vivo. The following applies: cream or ointment 10-30 mg/ml, evening prior to and morning of surgery. On the procedure: (§1) A 75 kilo […] is being prepared for surgery; the types of surgeries include open-heart surgery, joint replacement, back surgery, or any type of invasive surgery. A cream or ointment preparation of 10-30 mg/ml (S)-N-[[3-[3-fluoro-4-(4-morpholinyl)phenyl]-2-oxo-5-oxazolidinyl]methyl]acetamide is liberally spread by a nurse wearing gloves upon the intended site of the incision and an area of 8 inches around the margins of the intended incision site the evening prior to surgery and the first thing in the morning of the surgery. The area of application is kept free of clothing until the cream or ointment is absorbed.

Assay [4] deals with Staphylococcal epidermidis. The description is as above. The class given is in vivo. The settings on record: cream or ointment 10-30 mg/ml, evening prior to and morning of surgery. On the procedure: as §1

As for `CC(=O)NC[C@H]1CN(c2ccc(N3CCN(C(=O)CO)CC3)c(F)c2)C(=O)O1` [Example 1, (S)-N-[[3-[3-Fluoro-4-[4-(hydroxyacetyl)-1-piperazinyl]-phenyl]-2-oxo-5-oxazolidinyl]methyl]acetamide], in assay [1], the “reddened and swollen pustules after administration” value is “greatly reduced”.
As to `CC(=O)NC[C@H]1CN(c2ccc(N3CCOCC3)c(F)c2)C(=O)O1` [Example 2, (S)-N-[[3-[3-Fluoro-4-(4-morpholinyl)phenyl]-2-oxo-5-oxazolidinyl]methyl]acetamide], the “tissue destruction and repair in the ulcerated area” value in assay [2] is “tissue destruction in the ulcerated area has visibly ceased and tissue repair has begun”. Moreover, the “fever and ear pain” value in assay [3] is “the fever is down and the pain is gone”. In the assay on Staphylococcal aureus, the “skin commensal pathogen Staphylococcal aureus throughout the full thickness of the skin at the incision site” value was “killed or are prevented from growing”. For the same compound, the “skin commensal pathogen Staphylococcal epidermidis throughout the full thickness of the skin at the incision site” value in assay [4] is given as “killed or are prevented from growing”.
